A short description of this data set: in vitro. The note with it: human, hela cells, % viability.
As to `COc1ncc(-c2nccnc2NCCc2ccncc2)c(OC)n1` [CBK038074], the viability at 28.5 h, 10 µM came to 96.7%.
As for `Oc1cccc(-c2cn3ccnc3c(NC3CC3)n2)c1` [CBK038076], the figure is 101%.
On to `COc1ccccc1-c1nccnc1N[C@H](C)c1ccccc1` [CBK038083], for which the viability at 28.5 h, 10 µM came out at 107%.
As for `c1coc(-c2nccnc2NCCCN2CCOCC2)c1` [CBK038086], the figure is 96.8%; as for `Fc1ccccc1-c1nccnc1NCc1cccs1` [CBK038088], 106%.
For `COc1cc(Nc2nc(-c3cccc(NC(C)=O)c3)cn3ccnc23)cc(OC)c1OC` [CBK038093] the value was 99.7%; for `Nc1nnc(C(F)(F)F)s1` [CBK038099], 119%.
On to `CCCNC(=O)Cc1sccc1NS(=O)(=O)c1ccc(C)cc1` [CBK038118], for which the viability at 28.5 h, 10 µM worked out at 83%.
With `CS(=O)(=O)Nc1ccc(CC#N)cc1` [CBK038145], the viability at 28.5 h, 10 µM stood at 114%.
For `CN1C(=O)c2ccc(NS(C)(=O)=O)cc2C1=O` [CBK038158] the value was 104%; for `COc1ccc([C@@]23CC[C@@H](NC(=O)Nc4cccc(Br)c4)C[C@@H]2N(C)CC3)cc1OC` [CBK038225T], 91.4%.
For `CC(=O)Oc1cccc(C(=O)O)c1C` [CBK038235] the value was 87.7%; for `COc1ccccc1N1CCN(c2nccc3sc(S(=O)(=O)NC4CCC4)cc23)CC1` [CBK038248C], 87.7%.
As to `CCCCCCc1ccc(NS(=O)(=O)c2cc3c(NCCN(C)C)nccc3s2)cc1` [CBK038253C], the viability at 28.5 h, 10 µM amounted to 100%.
`COc1ccccc1N1CCN(c2nccc3sc(S(=O)(=O)NCc4ccc(C(F)(F)F)c(F)c4)cc23)CC1` [CBK038270C]: the viability at 28.5 h, 10 µM amounted to 93.8%.
For `CCCCN1CCC(CNc2nccc3sc(S(=O)(=O)NC4CCC4)cc23)CC1` [CBK038275C] the value was 95.9%; for `CC(O)C(=O)NS(=O)(=O)c1ccccc1` (stereo not drawn) [CBK038300], 104%; for `CC(=O)c1sccc1NS(=O)(=O)c1ccccc1` [CBK038384], 92.5%.
`Cc1ccc(F)c(NS(=O)(=O)Cc2ccccc2)c1` [CBK038438]: the viability at 28.5 h, 10 µM was found to be 111%.
For `O=S(=O)(c1cccc2nsnc12)N1CCCN(Cc2ccsc2)CC1` [CBK038570] the value was 105%.
Turning to `CC1(C)COC(=O)N1C1CCN(C(=O)c2cncc(Br)c2)CC1` [CBK038781], the viability at 28.5 h, 10 µM is 81.6%.
`Fc1ccc(C2(CCCN3CCN(c4ccncc4)CC3)OCCO2)cc1` [CBK038887]: the viability at 28.5 h, 10 µM is 111%.
On to `Cc1ccc(S(=O)(=O)Nc2cccc(C(=O)O)c2)cc1` [CBK038891], for which the viability at 28.5 h, 10 µM turned out to be 84.1%.
As for `Cc1noc(C)c1S(=O)(=O)Nc1cccc(C(=O)O)c1` [CBK038902], the figure is 102%.
Turning to `COc1ccc(/C=C(\C)C(=O)Nc2ccc(N3CCNCC3)c3ccccc23)cc1OC` [CBK038913T], the viability at 28.5 h, 10 µM was 92.4%.
As for `Cc1onc(-c2ccccc2)c1C(=O)Nc1ccccc1N1CCCNCC1` [CBK038929T], the figure is 96.9%.
As for `COc1ccc(/C=C(\C)C(=O)Nc2cc3ccccc3c(N3CCNCC3)n2)cc1OC` [CBK038937T], the figure is 82.1%; as for `Cc1oc(-c2ccccc2)cc1C(=O)Nc1ccccc1N1CCCNCC1` [CBK038940T], 83.5%.
`Cc1onc(-c2ccccc2)c1C(=O)Nc1ccc(N2CCNCC2)c2ccccc12` [CBK038942T]: the viability at 28.5 h, 10 µM is 87%.
On to `O=C(Nc1ccc(N2CCNCC2)c2ccccc12)c1coc2c1C(=O)CCC2` [CBK038946T], for which the viability at 28.5 h, 10 µM came to 81.5%.
`Cc1ccc(S(=O)(=O)Nc2cccc(C(=O)N3CCN(C)CC3)c2)cc1[N+](=O)[O-]` [CBK038976]: the viability at 28.5 h, 10 µM was determined as 89.5%.
Regarding `O=C(Nc1ccc(F)cc1)c1cccc(NS(=O)(=O)c2cc(Cl)sc2Cl)c1` [CBK038980], the viability at 28.5 h, 10 µM is 95.8%.
As for `COc1ccc(Br)cc1S(=O)(=O)Nc1cccc(C(=O)Nc2ccc(F)cc2)c1` [CBK038981], the viability at 28.5 h, 10 µM is 75.4%.
For the compound `COc1ccc(S(=O)(=O)Nc2cccc(C(=O)Nc3ccc(F)cc3)c2)cc1OC` [CBK038982], the viability at 28.5 h, 10 µM was 71.7%.
For the compound `Cc1c(Cl)cccc1S(=O)(=O)Nc1cccc(C(=O)Nc2ccc(F)cc2)c1` [CBK038983], the viability at 28.5 h, 10 µM was determined as 99.3%.
For `O=C(c1cccc(NS(=O)(=O)Cc2ccccc2)c1)N1CCOCC1` [CBK038991] the value was 91%.
As for `O=C(c1cccc(NS(=O)(=O)c2cc(F)c(Br)cc2F)c1)N1CCOCC1` [CBK039007], the figure is 86.7%; as for `COc1ccc(S(=O)(=O)Nc2cccc(C(=O)N3CCOCC3)c2)cc1OC` [CBK039010], 82.7%.
Turning to `CCCc1ccc(S(=O)(=O)Nc2cccc(C(=O)N3CCN(C)CC3)c2)cc1` [CBK039034], the viability at 28.5 h, 10 µM was 122%.
Consider `COC(=O)c1ccsc1NS(=O)(=O)c1ccc(F)cc1` [CBK039060], for which the viability at 28.5 h, 10 µM came out at 89.7%.
As for `COC(=O)c1ccsc1NS(=O)(=O)c1ccc(C)c([N+](=O)[O-])c1` [CBK039061], the viability at 28.5 h, 10 µM amounted to 92.2%.
With `COC(=O)c1ccsc1NS(=O)(=O)c1cc(Cl)sc1Cl` [CBK039062], the viability at 28.5 h, 10 µM was 88.2%.
On to `COC(=O)c1ccsc1NS(=O)(=O)c1ccc(Oc2ccccc2)cc1` [CBK039064], for which the viability at 28.5 h, 10 µM worked out at 108%.
As for `COC(=O)c1ccsc1NS(=O)(=O)c1cc(Br)ccc1OC` [CBK039065], the figure is 86.8%; as for `COC(=O)c1ccsc1NS(=O)(=O)c1cc(F)c(Br)cc1F` [CBK039068], 96.5%.
Turning to `O=S(=O)(Nc1cccc(C(F)(F)F)c1)c1cc2c(N3CCNCC3)nccc2s1` [CBK039085C], the viability at 28.5 h, 10 µM stood at 103%.
As for `Cc1cc2cc(F)ccc2n1CCCN1CCN(c2ccncc2)CC1` [CBK039119G], the figure is 116%.
`Nc1nnc(C2CCCCC2)s1` [CBK039123]: the viability at 28.5 h, 10 µM came to 84.5%.
As to `O=S(=O)(Cc1cccc(C(F)(F)F)c1)c1csc2ccnc(N3CCNCC3)c12` [CBK039166C], the viability at 28.5 h, 10 µM was determined as 92%.
On to `CC(C)N(C)CCOc1ncccc1OCCO` [CBK039171], for which the viability at 28.5 h, 10 µM was 104%.
As for `Cn1c(-c2ccc(CN3CCCC3)cc2)nc2onc(-c3ccccc3)c2c1=O` [CBK039188C], the figure is 95.2%; as for `Cc1ccc(C(=O)N2CN(C(=O)CN3CCOCC3)CC(C)(C)C2)cc1` [CBK039190], 105%.
For `Nc1ccc2ccc(Cl)nc2n1` [CBK039198] the value was 113%.
In the case of `COc1cccc2c3c([nH]c12)C1(CCCN(CCc2ccc(F)cc2)C1)NCC3` (stereo not drawn) [CBK039251], the viability at 28.5 h, 10 µM is 97.9%.
Take `Cc1cccc2c3c([nH]c12)C1(CCCN(Cc2ccc(F)cc2Cl)C1)NCC3` (stereo not drawn) [CBK039339]: the viability at 28.5 h, 10 µM turned out to be 90%.
As for `COc1ccc2[nH]c3c(c2c1)CCNC31CCCN(Cc2ccc(OC(F)(F)F)cc2)C1` (stereo not drawn) [CBK039387], the figure is 113%; as for `Cc1ccc2c(c1)CC(=O)NC21CCN(Cc2cccc(Br)c2)CC1` [CBK039392], 94.7%; as for `O=CN1CCc2c([nH]c3ccccc23)C12CCCN(CCOc1ccccc1)C2` (stereo not drawn) [CBK039412], 93.3%.
As for `COc1cccc2c3c([nH]c12)C1(CCN(CCOc2ccccc2)CC1)N(C=O)CC3` [CBK039423], the figure is 112%; as for `COc1ccc2[nH]c3c(c2c1)CCN(C=O)C31CCCN(CCC#N)C1` (stereo not drawn) [CBK039445], 107%.
As for `COc1ccc2[nH]c3c(c2c1)CCNC31CCN(CC(=O)C(C)(C)C)CC1` [CBK039471], the figure is 98.1%.
For the compound `CC(C)(C)C(=O)CN1CCC2(CC1)NCCc1c2[nH]c2cc(F)ccc12` [CBK039568], the viability at 28.5 h, 10 µM came out at 90.2%.
As for `O=CN1CCc2c([nH]c3ccccc23)C12CCN(CCCN1C(=O)C3CCCCC3C1=O)C2` (stereo not drawn) [CBK039592], the figure is 114%.
As for `O=CN1CCc2c([nH]c3cc(F)ccc23)C12CCN(CCc1ccc3c(c1)OCO3)CC2` [CBK039614], the figure is 86.5%; as for `COc1ccc2[nH]c3c(c2c1)CCN(C(C)=O)C31CCN(CCOc2ccccc2)C1` (stereo not drawn) [CBK039626], 85.5%.
As to `COc1cccc(CN2CCCC3(C2)c2[nH]c4ccccc4c2CCN3C(C)=O)c1` (stereo not drawn) [CBK039634], the viability at 28.5 h, 10 µM came out at 86.4%.
As to `CC(=O)N1CCc2c([nH]c3c(C)cccc23)C12CCN(CCOc1ccccc1)C2` (stereo not drawn) [CBK039646], the viability at 28.5 h, 10 µM was found to be 85.4%.
Regarding `Fc1ccc2c3c([nH]c2c1)C1(CCN(Cc2cc(F)c(F)c(F)c2)CC1)NCC3` [CBK039688], the viability at 28.5 h, 10 µM stood at 108%.
For `COc1cccc2c3c([nH]c12)C1(CCN(CCCC#N)CC1)N(C(C)=O)CC3` [CBK039722] the value was 99.6%; for `COc1ccc2[nH]c3c(c2c1)CCNC31CCN(Cc2ccc(S(C)(=O)=O)cc2)CC1` [CBK039753], 88.8%; for `CC(=O)N1CCc2c([nH]c3ccccc23)C12CCN(CCc1ccccc1)CC2` [CBK039757], 78.8%.
For `COc1cccc(CN2CCCC3(C2)NCCc2c3[nH]c3cc(F)ccc23)c1` (stereo not drawn) [CBK039786] the value was 87.5%; for `N#CCCN1CCC2(CC1)NCCc1c2[nH]c2ccccc12` [CBK039788], 89%; for `COC(=O)c1cccc(CN2CCC3(CC2)NC(=O)Cc2ccccc23)c1` [CBK039807], 101%.
For `CCN1CCC2(CC1)NC(=O)Cc1ccccc12` [CBK039810] the value was 96%; for `N#CCCCN1CCCC2(C1)NCCc1c2[nH]c2cc(F)ccc12` (stereo not drawn) [CBK039826], 117%.
Turning to `COc1ccc2c(c1)CC(=O)NC21CCN(Cc2c(F)cccc2F)CC1` [CBK039835], the viability at 28.5 h, 10 µM was determined as 93.8%.
As for `CCN1CCC2(CC1)NC(=O)Cc1cc(OC)c(OC)c(OC)c12` [CBK039868], the figure is 97.6%.

In general, viability refers to a read-out of living cells in per cent, often relative to untreated cells.

These data come from paper PMC12040169 (PLOS Biology, 2025).
